Measured values published in patent publication US20110269811A1, “INHIBITORS OF SEMICARBAZIDE-SENSITIVE AMINE OXIDASE (SSAO) AND VAP-1 MEDIATED ADHESION USEFUL FOR TREATMENT AND PREVENTION OF DISEASES” (priority 2006, published 2011).
Where a name gives a salt, the structure may show the parent alone. Read-outs that look alike come from different tables or passages of the source.

Key:
[1] = biological target: T1, Recombinant human MAO-A (Homo sapiens, UniProt P21397); experiment: MAO-A activity, colorimetric method, tyramine substrate; type: biochemical; details: for Specificity of SSAO on MAO-A: ratio of IC50 for MAO-A to IC50 for SSAO; for IC50: recombinant human MAO-A
T1 construct: purchased BD Biosciences (MA, USA)
T1 sequence (P21397 1-527): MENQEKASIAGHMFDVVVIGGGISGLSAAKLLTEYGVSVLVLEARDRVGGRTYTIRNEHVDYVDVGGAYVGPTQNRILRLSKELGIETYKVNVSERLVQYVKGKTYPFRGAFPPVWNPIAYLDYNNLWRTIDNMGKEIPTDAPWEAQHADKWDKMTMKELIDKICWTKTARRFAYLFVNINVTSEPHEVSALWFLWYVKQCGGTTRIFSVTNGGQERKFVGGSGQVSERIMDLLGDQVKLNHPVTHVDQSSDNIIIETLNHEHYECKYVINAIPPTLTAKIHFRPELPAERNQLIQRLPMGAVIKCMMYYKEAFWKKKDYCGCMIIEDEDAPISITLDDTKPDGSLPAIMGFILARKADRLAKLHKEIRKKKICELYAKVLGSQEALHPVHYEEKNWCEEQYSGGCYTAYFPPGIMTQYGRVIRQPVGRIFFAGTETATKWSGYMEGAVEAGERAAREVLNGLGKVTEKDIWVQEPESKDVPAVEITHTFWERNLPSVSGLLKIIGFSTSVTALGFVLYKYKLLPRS
Protocol: The specificities of the different SSAO inhibitors was tested by determining their abilities to inhibit MAO-A and MAO-B activities in vitro. Recombinant human MAO-A and human MAO-B enzymes were obtained from BD Biosciences (MA, USA). MAO activity was measured using the colorimetric method essentially as described (Holt, A. et al. (1997) Anal. Biochem. 244: 384). A pre-determined amount of inhibitor diluted in 0.2M potassium phosphate buffer, pH 7.6, was added to each well, if required. The amount of inhibitor varied in each assay but was generally at a final concentration of between 1 nM and 1 mM. Controls lacked inhibitor. The following agents were then added to a final reaction volume of 200 μL in 0.2M potassium phosphate buffer, pH 7.6: 0.04 mg/ml of MAO-A or 0.07 mg/ml MAO-B enzyme, 15 μL of 10 mM tyramine substrate (for MAO-A), or 15 μL 100 mM benzylamine substrate (for MAO-B), and 50 μL of freshly made chromogenic solution. The chromogenic solution contained 750 μM vanillic acid (Sigma#V-2250), 400 μM 4-aminoantipyrine (Sigma #A-4328) and 12 U/mL horseradish peroxidase (Sigma #P-8250) in order to cause a change of 0.5 OD A490 nm/h. This was within the linear response range for the assay. The plates were incubated for 60 min at 37° C. The increase in absorbance, reflecting MAO activity, was measured at 490 nm using microplate spectrophotometer (Power Wave 40, Bio-Tek Inst.). Inhibition was presented as percent inhibition compared to control after correcting for background absorbance and IC50 values calculated using GraphPad Prism software. Clorgyline and pargyline (inhibitors of MAO-A and -B, respectively) at 1 μM, were added to some wells as positive controls for MAO inhibition. […] The compounds described in the present invention are therefore expected to have therapeutic utility in the treatment of diseases and conditions in which the activity of SSAO/VAP-1 plays a role, that is, in SSAO/VAP-1 mediated diseases and conditions.

[2] = biological target: T2, Human SSAO (Homo sapiens, UniProt Q16853); experiment: In vitro inhibition of SSAO activity, human umbilical cord homogenate, 14C-benzylamine; type: biochemical
T2 construct: rat lung or human umbilical cord homogenates were prepared by chopping the freshly removed tissue; from tissue; host or cells: human umbilical cord homogenate (25,000 g supernatant)
T2 sequence (Q16853 1-763): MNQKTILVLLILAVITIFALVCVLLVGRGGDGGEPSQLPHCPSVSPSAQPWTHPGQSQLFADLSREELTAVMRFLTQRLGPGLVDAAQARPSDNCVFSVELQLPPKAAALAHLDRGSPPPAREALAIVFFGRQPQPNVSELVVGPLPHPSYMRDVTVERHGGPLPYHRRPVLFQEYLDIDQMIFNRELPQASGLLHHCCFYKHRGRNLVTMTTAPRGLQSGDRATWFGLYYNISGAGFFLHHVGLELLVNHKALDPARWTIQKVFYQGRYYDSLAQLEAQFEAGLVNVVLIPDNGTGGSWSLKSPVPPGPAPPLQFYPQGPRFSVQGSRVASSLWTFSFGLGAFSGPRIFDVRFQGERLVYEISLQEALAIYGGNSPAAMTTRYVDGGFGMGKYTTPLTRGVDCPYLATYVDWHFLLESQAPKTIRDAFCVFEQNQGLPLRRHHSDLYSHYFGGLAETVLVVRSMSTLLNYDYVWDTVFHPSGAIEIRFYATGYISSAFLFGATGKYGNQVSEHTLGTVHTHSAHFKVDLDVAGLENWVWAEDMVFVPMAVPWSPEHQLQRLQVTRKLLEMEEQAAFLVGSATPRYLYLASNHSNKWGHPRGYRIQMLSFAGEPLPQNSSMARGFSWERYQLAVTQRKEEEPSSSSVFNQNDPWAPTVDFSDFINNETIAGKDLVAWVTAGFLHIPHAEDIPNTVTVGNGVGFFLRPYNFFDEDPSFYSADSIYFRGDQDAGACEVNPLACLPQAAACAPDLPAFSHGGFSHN
Protocol: SSAO activity was measured as described (Lizcano J M. Et al. (1998) Biochem J. 331:69). Briefly, rat lung or human umbilical cord homogenates were prepared by chopping the freshly removed tissue into small pieces and washing them thoroughly in PBS. The tissue was then homogenized 1:10 (w/v) for lung or 1:5 (w/v) for umbilical cord, in 10 mM potassium phosphate buffer (pH 7.8). Homogenates were then centrifuged at 1000 g at 4° C. for 10 min (lung) or 25,000 g for 30 min (umbilical cord); the supernatants were kept frozen until ready to use. Lung or umbilical cord homogenate was preincubated with clorgyline and pargyline at 1 μM to inhibit MAO-A and -B activity, respectively, and SSAO inhibitors were generally present at 1 nM-10 μM. The reaction was initiated by addition of 20 μM ^14C— benzylamine as substrate. The reaction was carried out at 37° C. in a final volume of 400 μL of 100 mM potassium phosphate buffer (pH 7.2) and stopped with 100 μl of 2M citric acid. Radioactively labeled products were extracted into toluene/ethyl acetate (1:1, v/v) containing 0.6% (w/v) 2,5-diphenyloxazole (PPO) before liquid scintillation counting.

[3] = human umbilical cord homogenate, read-out: Human SSAO IC50

Row | Compound | Specificity of SSAO on MAO-A [1] | IC50 [1] [µM] | IC50 [2, 3] [µM] | IC50 ([2]; as restated in Example 46, read-out: IC50 for human SSAO) [µM]
1 | COc1ccc(C/C(=C/F)CN)cc1.Cl [Compound I-1-Z, (Z)-3-Fluoro-2-(4-methoxybenzyl)-allylamine hydrochloride] | 4700 | 85 | – | 0.018
2 | CCOc1ccc(C/C(=C/F)CN)cc1.Cl [Compound I-2-Z, (Z)-3-Fluoro-2-(4-ethoxybenzyl)-allylamine hydrochloride] | 7900 | 79 | 0.01 | –
3 | COc1cccc(C/C(=C/F)CN)c1.Cl [Compound I-5-Z, (Z)-3-Fluoro-2-(3-methoxybenzyl)allylamine hydrochloride] | 2643 | 74 | 0.028 | –
4 | CC(C)Oc1ccc(C/C(=C\F)CN)cc1 [Compound I-8-E, (E)-3-Fluoro-2-(4-isopropoxybenzyl)allylamine hydrochloride] | 4211 | 48 | 0.0114 | –
5 | CC(C)Oc1ccc(C/C(=C/F)CN)cc1.Cl [Compound I-8-Z, (Z)-3-Fluoro-2-(4-isopropoxybenzyl)allylamine hydrochloride] | 7000 | 35 | 0.005 | –
6 | CSc1ccc(C/C(=C/F)CN)cc1.Cl [Compound I-9-Z, (Z)-3-Fluoro-2-(4-methylthiobenzyl)allylamine hydrochloride] | 8385 | 109 | 0.012 | –
7 | CC(C)c1ccc(C/C(=C/F)CN)cc1.Cl [Compound I-14-Z, (Z)-3-Fluoro-2-(4-isopropylbenzyl)allylamine hydrochloride] | 11250 | 90 | 0.008 | –
8 | CC(C)(C)c1ccc(C/C(=C/F)CN)cc1.Cl [Compound I-15-Z, (Z)-3-Fluoro-2-(4-tert-butylbenzyl)allylamine hydrochloride] | 17000 | 119 | 0.007 | –
9 | NC/C(=C\Cl)CCc1cc(F)cc(C(F)(F)F)c1.O=C(O)C(F)(F)F [Compound I-40-Z, (Z)-3-Chloro-2-(3-fluoro-5-trifluoromethylphenylethyl)allylamine trifluoroacetate] | 687 | 632 | 0.92 | –
10 | CCCCOc1ccc(CC/C(=C\Cl)CN)cc1.Cl [Compound I-47-E, (E)-3-Chloro-2-(4-n-butoxyphenylethyl)allylamine hydrochloride] | 794 | 135 | 0.17 | –
11 | COc1ccc(CC/C(=C/F)CN)cc1.Cl [Compound I-102-Z, (Z)-3-Fluoro-2-[2-(4-methoxyphenyl)-ethyl]-allylamine hydrochloride] | 21 | 0.62 | 0.03 | –
12 | NC/C(=C\F)CCc1cc(F)cc(C(F)(F)F)c1.O=C(O)C(F)(F)F [Compound I-109-Z, (Z)-3-Fluoro-2-(3-fluoro-5-trifluoromethylphenylethyl)allylamine trifluoroacetate] | 78 | 21 | 0.27 | –
13 | NC/C(F)=C\Cc1cc(F)cc(C(F)(F)F)c1 [II-1-E, (E)-2-Fluoro-4-(3-fluoro-5-trifluoromethylphenyl)-but-2-enylamine] | >2400 | > 87 | 0.036 | –
14 | Cc1cccc(C/C=C(/F)CN)c1.Cl [II-6-E, (E)-2-Fluoro-4-(3-methylphenyl)-2-butenylamine hydrochloride] | 7692 | – | 0.13 | –

The next lines start with results.

Row | Specificity of SSAO on MAO-A [1] | IC50 [1] [µM] | IC50 [2, 3] [µM] | Compound | IC50 ([2]; as restated in Example 46, read-out: IC50 for human SSAO) [µM]
15 | 9400 | 85 | 0.009 | CCOc1ccc(C/C(=C\F)CN)cc1.Cl [Compound I-2-E, (E)-3-Fluoro-2-(4-ethoxybenzyl)-allylamine hydrochloride] | –
16 | 3250 | 91 | 0.028 | Cl.NC/C(=C\F)Cc1ccc(Cl)cc1 [Compound I-3-Z, (Z)-2-(4-Chlorobenzyl)-3-fluoro-allylamine hydrochloride] | –
17 | 5923 | 77 | 0.013 | CC(C)c1ccc(C/C(=C\F)CN)cc1.Cl [Compound I-14-E, (E)-3-Fluoro-2-(4-isopropylbenzyl)allylamine hydrochloride] | –
18 | 1360 | 34 | 0.025 | Cl.NC/C(=C\F)Cc1cccc(F)c1 [Compound I-19-Z, (Z)-3-Fluoro-2-(3-fluorobenzyl)allylamine hydrochloride] | –
19 | 146 | 105 | 0.72 | COc1ccc(CC/C(=C\Cl)CN)cc1.Cl [Compound I-44-Z, (E)-3-Chloro-2-(4-methoxyphenylethyl)allylamine hydrochloride] | –
20 | 143 | 20 | 0.14 | CCOc1ccc(CC/C(=C\Cl)CN)cc1.Cl [Compound I-45-Z, (E)-3-Chloro-2-(4-ethoxyphenylethyl)allylamine hydrochloride] | –
21 | 177 | 23 | 0.13 | NC/C(=C\F)CCc1ccc(F)cc1 [Compound I-99-Z, (Z)-2-(fluoromethylene)-4-(4-fluorophenyl)butan-1-amine] | –
22 | >3333 | > 1000 | 0.3 | Cl.NC/C(F)=C\Cc1ccc(F)cc1 [II-5-E, (E)-2-Fluoro-4-(4-fluorophenyl)-2-butenylamine hydrochloride] | –
23 | 4545 | – | 0.22 | Cl.NC/C(F)=C\Cc1cccc(F)c1 [II-7-E, (E)-2-Fluoro-4-(3-fluorophenyl)-2-butenylamine hydrochloride] | –
